Experimental data from DBAASP.
≈ marks a conversion by molar mass, not a printed value. Where “and” joins values, the source holds several entries; their conditions need not be identical. Equal entries are not always repeated.

Tests used:
Test in all cases: ≥ marks a high value that may be exact or a test limit, other limits are often not marked, values filed in µg/mL are converted to µM
[1] = system: Candida albicans CGMCC 2.2086
[2] = system: Candida parapsilosis CGMCC 2.3989
[3] = system: Candida tropicalis CGMCC 2.1975
Escherichia coli 078 = system: Escherichia coli 078
Escherichia coli K88 = system: Escherichia coli K88
Escherichia coli K99 = system: Escherichia coli K99
Escherichia coli UB1005 = system: Escherichia coli UB1005
[4] = system: Pseudomonas aeruginosa ATCC 27853
[5] = system: Salmonella enterica subsp. enterica serovar Pullorum ATCC 7913
[6] = system: Salmonella enterica subsp. enterica serovar Typhimurium ATCC 14028
[7] = system: Salmonella enterica subsp. enterica serovar Typhimurium C77-31
[8] = system: Staphylococcus aureus ATCC 25923
[9] = system: Staphylococcus aureus ATCC 43300
[10] = system: Staphylococcus epidermidis ATCC 12228
[11] = system: Candida albicans NCYC 1467
[12] = system: Enterococcus faecalis NCTC 12697
[13] = system: Escherichia coli NCTC 10418
[14] = system: Klebsiella pneumoniae ATCC 43816
[15] = system: Staphylococcus aureus NCTC 10788
[16] = system: Staphylococcus aureus NCTC 12493
[17] = system: Micrococcus luteus ATCC 49732
Candida albicans = system: Candida albicans
[18] = system: Bacillus subtilis ATCC 23857
[19] = system: Candida albicans ATCC 10231
[20] = system: Escherichia coli ATCC 25922
[21] = system: Klebsiella aerogenes ATCC 13048
[22] = system: Pseudomonas aeruginosa ATCC 9027
[23] = system: Staphylococcus aureus ATCC 29737
[24] = system: Acinetobacter baumannii ATCC 19606
[25] = system: Candida albicans ATCC 90028
[26] = system: Cryptococcus neoformans ATCC 208821
[27] = system: Klebsiella pneumoniae ATCC 700603

With `CC[C@H](C)[C@H](NC(=O)[C@H](CCCN=C(N)N)NC(=O)[C@H](C)NC(=O)[C@H](C)N)C(=O)N[C@H](C(=O)N[C@@H](CC(C)C)C(=O)N[C@@H](CCCN=C(N)N)C(=O)N[C@@H](CCCN=C(N)N)C(=O)N[C@@H](CCCN=C(N)N)C(=O)N[C@@H](Cc1ccccc1)C(=O)N[C@@H](CCCN=C(N)N)C(N)=O)[C@@H](C)CC` [AARIILRRRFR] the MIC [1] was ≥ 128 µM, the MIC [2] was ≥ 64 µM and the MIC [3] was ≥ 64 µM. The MIC (Escherichia coli 078) was 16 µM (≈ 22.8 µg/mL), the MIC (Escherichia coli K88) was 16 µM (≈ 22.8 µg/mL) and the MIC (Escherichia coli K99) was 8 µM (≈ 11.4 µg/mL). For the same molecule, the MIC (Escherichia coli UB1005) was 16 µM (≈ 22.8 µg/mL), the MIC [4] was > 128 µM and the MIC [5] was 16 µM (≈ 22.8 µg/mL). It also gave an MIC [6] of 32 µM (≈ 45.7 µg/mL), an MIC [7] of 8 µM (≈ 11.4 µg/mL) and an MIC [8] of 32 µM (≈ 45.7 µg/mL). It also gave an MIC [9] of 16 µM (≈ 22.8 µg/mL) and an MIC [10] of 16 µM (≈ 22.8 µg/mL).

For `CC[C@H](C)[C@H](NC(=O)[C@H](C)NC(=O)[C@H](CO)NC(=O)[C@@H](NC(=O)[C@@H](NC(=O)[C@H](CCCCN)NC(=O)[C@@H]1CCCN1C(=O)[C@@H](NC(=O)[C@H](CC(C)C)NC(=O)[C@H](CO)NC(=O)[C@H](CC(C)C)NC(=O)[C@@H](N)Cc1ccccc1)[C@@H](C)CC)[C@@H](C)CC)[C@@H](C)CC)C(=O)N[C@@H](CO)C(=O)N[C@@H](C)C(=O)N[C@@H](CC(C)C)C(=O)N[C@H](C(=O)N[C@@H](CC(N)=O)C(=O)N[C@@H](Cc1cnc[nH]1)C(=O)N[C@@H](Cc1ccccc1)C(N)=O)[C@@H](C)CC` [FLSLIPKIISAISALINHF], the MIC [11] was ≥ 32 µM, the MIC [12] was ≥ 32 µM and the MIC [13] was ≥ 512 µM. The MIC [14] was ≥ 512 µM, the MIC [4] was > 512 µM and the MIC [15] was 2 µM (≈ 4.19 µg/mL). For the same molecule, the MIC [16] was ≥ 128 µM.

`CC[C@H](C)[C@H](NC(=O)[C@H](CO)NC(=O)[C@@H]1CCCN1C(=O)[C@H](CC(C)C)NC(=O)[C@H](CC(C)C)NC(=O)[C@H](CO)NC(=O)[C@H](CC(C)C)NC(=O)[C@@H](N)Cc1ccccc1)C(=O)N[C@H](C(=O)N[C@@H](CO)C(=O)NCC(=O)N[C@@H](C)C(=O)N[C@H](C(=O)N[C@@H](CO)C(=O)N[C@@H](CC(C)C)C(=O)N[C@@H](C)C(=O)N[C@@H](CCCCN)C(=O)N[C@@H](CCCCN)C(=O)N[C@@H](CC(C)C)C(N)=O)C(C)C)C(C)C` [FLSLLPSIVSGAVSLAKKL] showed an MIC [17] of 1.3 µM (≈ 2.53 µg/mL).

For `CC(C)C[C@H](NC(=O)[C@H](CCC(N)=O)NC(=O)[C@H](CCC(N)=O)NC(=O)[C@H](C)NC(=O)CNC(=O)[C@H](C)NC(=O)[C@H](CCCCN)NC(=O)CNC(=O)[C@@H](NC(=O)[C@H](CCC(N)=O)NC(=O)[C@H](CCCCN)NC(=O)[C@H](CCCN=C(N)N)NC(=O)[C@H](CC(C)C)NC(=O)[C@H](Cc1ccc(O)cc1)NC(=O)[C@H](CCCCN)NC(=O)[C@H](C)NC(=O)CNC(=O)[C@H](C)NC(=O)[C@H](CCCCN)NC(=O)[C@H](Cc1ccccc1)NC(=O)[C@H](CC(C)C)NC(=O)[C@H](CO)NC(=O)[C@H](CO)NC(=O)[C@H](Cc1ccccc1)NC(=O)CN)C(C)C)C(N)=O` [GFSSLFKAGAKYLRKQVGKAGAQQL], the MIC [11] was ≥ 64 µM, the MIC [12] was 16 µM (≈ 42.5 µg/mL) and the MIC [13] was 8 µM (≈ 21.2 µg/mL). The MIC [14] was ≥ 128 µM, the MIC [4] was 16 µM (≈ 42.5 µg/mL) and the MIC [15] was 16 µM (≈ 42.5 µg/mL). The MIC [16] was ≥ 64 µM.

In the case of `CC(C)C[C@H](NC(=O)[C@H](C)NC(=O)CNC(=O)[C@H](CCCN=C(N)N)NC(=O)[C@H](CCCN=C(N)N)NC(=O)[C@H](CCCN=C(N)N)NC(=O)[C@H](CCC(N)=O)NC(=O)[C@H](CCCN=C(N)N)NC(=O)[C@H](CCCN=C(N)N)NC(=O)[C@H](CCCCN)NC(=O)[C@H](CCCCN)NC(=O)[C@H](CCCN=C(N)N)NC(=O)CN)C(=O)N[C@@H](Cc1c[nH]c2ccccc12)C(=O)N[C@@H](CCCCN)C(=O)N[C@@H](CO)C(=O)N[C@@H](CC(C)C)C(=O)N[C@@H](CC(C)C)C(=O)N[C@@H](CCCCN)C(=O)N[C@@H](CC(N)=O)C(=O)N[C@H](C(=O)NCC(=O)N[C@@H](CCCCN)C(=O)N[C@@H](C)C(N)=O)C(C)C` [GRKKRRQRRRGALWKSLLKNVGKA], the MIC [11] is reported as 4 µM (≈ 11.4 µg/mL), the MIC [12] is reported as ≥ 32 µM and the MIC [13] is reported as 4 µM (≈ 11.4 µg/mL). For the same molecule, the MIC [14] was ≥ 32 µM, the MIC [4] was 8 µM (≈ 22.9 µg/mL) and the MIC [15] was 8 µM (≈ 22.9 µg/mL). It also gave an MIC [16] of 16 µM (≈ 45.8 µg/mL).

In the case of `CC[C@H](C)[C@H](NC(=O)CNC(=O)[C@H](CCCCN)NC(=O)[C@H](Cc1c[nH]c2ccccc12)NC(=O)[C@H](CC(C)C)NC(=O)[C@H](CC(C)C)NC(=O)[C@H](Cc1c[nH]c2ccccc12)NC(=O)[C@H](CCCCN)NC(=O)CNC(=O)[C@@H](NC(=O)[C@@H](N)CCCCN)[C@@H](C)CC)C(=O)N[C@@H](CCCCN)C(=O)N[C@@H](CCCCN)C(=O)N[C@H](C(=O)NCC(=O)N[C@@H](CCCCN)C(=O)N[C@@H](Cc1c[nH]c2ccccc12)C(=O)N[C@@H](CC(C)C)C(N)=O)[C@@H](C)CC` [KIGKWLLWKGIKKIGKWL], the MIC [1] is reported as 4 µM (≈ 8.78 µg/mL), the MIC (Candida albicans) is reported as 5.66 µM and 4 µM and the MIC [2] is reported as 8 µM (≈ 17.6 µg/mL). The MIC [3] was 2 µM (≈ 4.39 µg/mL).

For `CC(C)C[C@H](NC(=O)[C@H](CC(C)C)NC(=O)[C@H](CCCCN)NC(=O)[C@H](CCCCN)NC(=O)[C@H](CC(C)C)NC(=O)[C@H](CC(C)C)NC(=O)[C@H](CCCCN)NC(=O)[C@H](CCCCN)NC(=O)[C@H](CC(C)C)NC(=O)[C@H](CC(C)C)NC(=O)[C@H](CCCCN)NC(=O)[C@H](CCCCN)NC(=O)[C@H](CC(C)C)NC(=O)[C@@H](N)CC(C)C)C(=O)N[C@@H](CCCCN)C(=O)N[C@@H](CCCCN)C(N)=O` [LLKKLLKKLLKKLLKK], the MIC [18] was 4.07 µM (≈ 7.93 µg/mL), the MIC [19] was > 25.7 µM and the MIC [20] was 6.41 µM (≈ 12.5 µg/mL). For the same molecule, the MIC [21] was 12.8 µM (≈ 25 µg/mL), the MIC [22] was 3.23 µM (≈ 6.3 µg/mL) and the MIC [23] was 25.7 µM (≈ 50 µg/mL).

`NC(=O)C[C@H](N)C(=O)N[C@@H](Cc1cnc[nH]1)C(=O)N[C@@H](Cc1cnc[nH]1)C(=O)N[C@@H](CCCN=C(N)N)C(=O)N[C@@H](CCCN=C(N)N)C(=O)N[C@@H](Cc1cnc[nH]1)C(=O)N[C@@H](Cc1cnc[nH]1)C(=O)N[C@@H](CCCN=C(N)N)C(=O)N[C@@H](CS)C(=O)N[C@@H](CCCN=C(N)N)C(=O)O` [NHHRRHHRCR] was tested, and the MIC [24] was > 22.7 µM, the MIC [25] was 22.7 µM (≈ 32 µg/mL) and the MIC [26] was 22.7 µM (≈ 32 µg/mL). For the same molecule, the MIC [20] was > 22.7 µM, the MIC [27] was > 22.7 µM and the MIC [4] was > 22.7 µM. The MIC [9] was > 22.7 µM.
